Results published in the NIST ThermoML archive (doi:10.1016/j.jct.2006.08.009).

Test: mn = molality of the nth substance listed, in mol/kg
Conditions: 350 kPa, Liquid; for apparent molar heat capacity: Extra sensitive DSC

OC[C@@H](O)[C@@H](O)[C@H](O)[C@@H](O)CO [D-sorbitol] + O
Conditions | apparent molar heat capacity [J/K/mol] | mass density [kg/m3]
278.15 K, m1 = 0.02 | 373 | 1001.46
278.15 K, m1 = 0.04 | 346.7 | 1002.79
278.15 K, m1 = 0.069 | 355.4 | 1005.09
278.15 K, m1 = 0.1997 | 360.1 | 1013.23
278.15 K, m1 = 0.4003 | 363.3 | 1025.52
278.15 K, m1 = 0.6991 | 367.7 | 1042.94
278.15 K, m1 = 0.9784 | 372.3 | 1057.65
278.15 K, m1 = 1.501 | 372.1 | 1082.71
278.15 K, m1 = 2.004 | 383.7 | 1104.6
283.15 K, m1 = 0.02 | 391 | 1001.14
283.15 K, m1 = 0.04 | 366.7 | 1002.47
283.15 K, m1 = 0.069 | 374.6 | 1004.71
283.15 K, m1 = 0.1997 | 378.8 | 1012.74
283.15 K, m1 = 0.4003 | 381.8 | 1024.88
283.15 K, m1 = 0.6991 | 385.6 | 1042.11
283.15 K, m1 = 0.9784 | 389.4 | 1056.73
283.15 K, m1 = 1.501 | 389.4 | 1081.57
283.15 K, m1 = 2.004 | 399.4 | 1103.19
288.15 K, m1 = 0.02 | 406 | 1000.48
288.15 K, m1 = 0.04 | 382.5 | 1001.81
288.15 K, m1 = 0.069 | 389.8 | 1003.99
288.15 K, m1 = 0.1997 | 393.7 | 1011.95
288.15 K, m1 = 0.4003 | 396.3 | 1023.96
288.15 K, m1 = 0.6991 | 399.5 | 1041
288.15 K, m1 = 0.9784 | 402.8 | 1055.55
288.15 K, m1 = 1.501 | 402 | 1080.23
288.15 K, m1 = 2.004 | 411.5 | 1101.6
293.15 K, m1 = 0.02 | 418 | –
293.15 K, m1 = 0.04 | 395.4 | –
293.15 K, m1 = 0.069 | 402.5 | –
293.15 K, m1 = 0.1997 | 406.4 | –
293.15 K, m1 = 0.4003 | 408.9 | –
293.15 K, m1 = 0.6991 | 411.6 | –
293.15 K, m1 = 0.9784 | 414.4 | –
293.15 K, m1 = 1.501 | 413.2 | –
293.15 K, m1 = 2.004 | 422 | –
298.15 K, m1 = 0.02 | 429 | 998.4
298.15 K, m1 = 0.04 | 406.9 | 999.67
298.15 K, m1 = 0.069 | 413.8 | 1001.72
298.15 K, m1 = 0.1997 | 417.4 | 1009.58
298.15 K, m1 = 0.4003 | 419.5 | 1021.39
298.15 K, m1 = 0.6991 | 421.9 | 1038.13
298.15 K, m1 = 0.9784 | 424.4 | 1052.5
298.15 K, m1 = 1.501 | 422.7 | 1076.86
298.15 K, m1 = 2.004 | 430.9 | 1097.81
303.15 K, m1 = 0.02 | 439 | –
303.15 K, m1 = 0.04 | 417.1 | –
303.15 K, m1 = 0.069 | 423.6 | –
303.15 K, m1 = 0.1997 | 426.9 | –
303.15 K, m1 = 0.4003 | 428.9 | –
303.15 K, m1 = 0.6991 | 430.9 | –
303.15 K, m1 = 0.9784 | 433.1 | –
303.15 K, m1 = 1.501 | 431.1 | –
303.15 K, m1 = 2.004 | 438.8 | –
308.15 K, m1 = 0.02 | 447 | 995.35
308.15 K, m1 = 0.04 | 425.7 | 996.6
308.15 K, m1 = 0.069 | 432 | 998.45
308.15 K, m1 = 0.1997 | 435.3 | 1006.4
308.15 K, m1 = 0.4003 | 437 | 1018.06
308.15 K, m1 = 0.6991 | 438.8 | 1034.6
308.15 K, m1 = 0.9784 | 440.7 | 1048.63
308.15 K, m1 = 1.501 | 438.4 | 1072.81
308.15 K, m1 = 2.004 | 445.8 | 1093.63
313.15 K, m1 = 0.02 | 455 | –
313.15 K, m1 = 0.04 | 432.5 | –
313.15 K, m1 = 0.069 | 439.5 | –
313.15 K, m1 = 0.1997 | 442.6 | –
313.15 K, m1 = 0.4003 | 444.2 | –
313.15 K, m1 = 0.6991 | 445.8 | –
313.15 K, m1 = 0.9784 | 447.5 | –
313.15 K, m1 = 1.501 | 445.1 | –
313.15 K, m1 = 2.004 | 452.2 | –
318.15 K, m1 = 0.02 | 462 | 991.53
318.15 K, m1 = 0.04 | 439.7 | 992.78
318.15 K, m1 = 0.069 | 446.1 | 994.56
318.15 K, m1 = 0.1997 | 449.1 | 1002.41
318.15 K, m1 = 0.4003 | 450.6 | 1013.97
318.15 K, m1 = 0.6991 | 452 | 1030.3
318.15 K, m1 = 0.9784 | 453.6 | 1044.19
318.15 K, m1 = 1.501 | 451 | 1068.13
318.15 K, m1 = 2.004 | 457.8 | 1088.73
323.15 K, m1 = 0.02 | 468 | –
323.15 K, m1 = 0.04 | 446 | –
323.15 K, m1 = 0.069 | 451.9 | –
323.15 K, m1 = 0.1997 | 455 | –
323.15 K, m1 = 0.4003 | 456.3 | –
323.15 K, m1 = 0.6991 | 457.6 | –
323.15 K, m1 = 0.9784 | 459 | –
323.15 K, m1 = 1.501 | 456.5 | –
323.15 K, m1 = 2.004 | 463 | –
328.15 K, m1 = 0.02 | 473 | 987.02
328.15 K, m1 = 0.04 | 450.8 | 988.24
328.15 K, m1 = 0.069 | 457.2 | 989.98
328.15 K, m1 = 0.1997 | 460.2 | 997.75
328.15 K, m1 = 0.4003 | 461.5 | 1009.18
328.15 K, m1 = 0.6991 | 462.7 | 1025.35
328.15 K, m1 = 0.9784 | 464 | 1039.16
328.15 K, m1 = 1.501 | 461.4 | 1062.99
328.15 K, m1 = 2.004 | 467.6 | 1083.37
333.15 K, m1 = 0.02 | 478 | –
333.15 K, m1 = 0.04 | 456.4 | –
333.15 K, m1 = 0.069 | 462 | –
333.15 K, m1 = 0.1997 | 464.9 | –
333.15 K, m1 = 0.4003 | 466.2 | –
333.15 K, m1 = 0.6991 | 467.3 | –
333.15 K, m1 = 0.9784 | 468.5 | –
333.15 K, m1 = 1.501 | 465.9 | –
333.15 K, m1 = 2.004 | 471.9 | –
338.15 K, m1 = 0.02 | 482 | 981.86
338.15 K, m1 = 0.04 | 460.5 | 983.14
338.15 K, m1 = 0.069 | 466.2 | 984.86
338.15 K, m1 = 0.1997 | 469.2 | 992.6
338.15 K, m1 = 0.4003 | 470.5 | 1003.94
338.15 K, m1 = 0.6991 | 471.5 | 1020.02
338.15 K, m1 = 0.9784 | 472.6 | 1033.71
338.15 K, m1 = 1.501 | 470.1 | 1057.29
338.15 K, m1 = 2.004 | 475.8 | 1077.49
343.15 K, m1 = 0.02 | 486 | –
343.15 K, m1 = 0.04 | 464 | –
343.15 K, m1 = 0.069 | 470 | –
343.15 K, m1 = 0.1997 | 473 | –
343.15 K, m1 = 0.4003 | 474.3 | –
343.15 K, m1 = 0.6991 | 475.3 | –
343.15 K, m1 = 0.9784 | 476.3 | –
343.15 K, m1 = 1.501 | 473.9 | –
343.15 K, m1 = 2.004 | 479.3 | –
348.15 K, m1 = 0.02 | 489 | 976.44
348.15 K, m1 = 0.04 | 467.7 | 977.62
348.15 K, m1 = 0.069 | 473.3 | 979.35
348.15 K, m1 = 0.1997 | 476.4 | 987.03
348.15 K, m1 = 0.4003 | 477.7 | 998.25
348.15 K, m1 = 0.6991 | 478.6 | 1014.26
348.15 K, m1 = 0.9784 | 479.7 | 1027.75
348.15 K, m1 = 1.501 | 477.3 | 1051.07
348.15 K, m1 = 2.004 | 482.4 | 1071.23
353.15 K, m1 = 0.02 | 492 | –
353.15 K, m1 = 0.04 | 472.1 | –
353.15 K, m1 = 0.069 | 476.2 | –
353.15 K, m1 = 0.1997 | 479.4 | –
353.15 K, m1 = 0.4003 | 480.6 | –
353.15 K, m1 = 0.6991 | 481.6 | –
353.15 K, m1 = 0.9784 | 482.6 | –
353.15 K, m1 = 1.501 | 480.4 | –
353.15 K, m1 = 2.004 | 485.2 | –
358.15 K, m1 = 0.02 | 494 | 969.9
358.15 K, m1 = 0.04 | 480.2 | 971.49
358.15 K, m1 = 0.069 | 478.7 | 972.88
358.15 K, m1 = 0.1997 | 481.7 | 980.97
358.15 K, m1 = 0.4003 | 483 | 991.75
358.15 K, m1 = 0.6991 | 483.9 | 1007.73
358.15 K, m1 = 0.9784 | 484.8 | 1021.37
358.15 K, m1 = 1.501 | 483.2 | 1044.38
358.15 K, m1 = 2.004 | 487.4 | 1064.53
363.15 K, m1 = 0.02 | 495 | –
363.15 K, m1 = 0.04 | 508 | –
363.15 K, m1 = 0.069 | 479.6 | –
363.15 K, m1 = 0.1997 | 482.5 | –
363.15 K, m1 = 0.4003 | 483.7 | –
363.15 K, m1 = 0.6991 | 484.6 | –
363.15 K, m1 = 0.9784 | 485.5 | –
363.15 K, m1 = 1.501 | 485.7 | –
363.15 K, m1 = 2.004 | 487.9 | –
368.15 K, m1 = 0.02 | – | 963.45
368.15 K, m1 = 0.04 | – | 964.68
368.15 K, m1 = 0.069 | – | 966.4
368.15 K, m1 = 0.1997 | – | 974.03
368.15 K, m1 = 0.4003 | – | 985.25
368.15 K, m1 = 0.6991 | – | 1001.2
368.15 K, m1 = 0.9784 | – | 1014.47
368.15 K, m1 = 1.501 | – | 1037.56
368.15 K, m1 = 2.004 | – | 1057.91
